Measured values reported in ChEMBL document CHEMBL3994622, “Design and synthesis of new RAF kinase-inhibiting antiproliferative quinoline derivatives. Part 2: Diarylurea derivatives” (Eur J Med Chem, 2017).

Key:
OVCAR-3 = experiment: Growth inhibition of human OVCAR3 cells incubated for 48 hrs by sulforhodamine B assay; assay type: functional; conditions: OVCAR-3, 48 h
K562 = experiment: Growth inhibition of human K562 cells incubated for 48 hrs by sulforhodamine B assay; assay type: functional; conditions: K562, 48 h
786-0 = experiment: Growth inhibition of human 786-0 cells incubated for 48 hrs by sulforhodamine B assay; assay type: functional; conditions: 786-0, 48 h
Malme-3M = experiment: Growth inhibition of human MALME-3M cells incubated for 48 hrs by sulforhodamine B assay; assay type: functional
SK-MEL-5 = experiment: Growth inhibition of human SK-MEL-5 cells incubated for 48 hrs by sulforhodamine B assay; assay type: functional; conditions: SK-MEL-5, 48 h
SK-OV-3 = experiment: Growth inhibition of human SKOV3 cells incubated for 48 hrs by sulforhodamine B assay; assay type: functional; conditions: SK-OV-3, 48 h
RPMI-8226 = experiment: Growth inhibition of human RPMI8226 cells incubated for 48 hrs by sulforhodamine B assay; assay type: functional; conditions: RPMI-8226, 48 h
NCI-H460 = experiment: Growth inhibition of human NCI-H460 cells incubated for 48 hrs by sulforhodamine B assay; assay type: functional; conditions: NCI-H460, 48 h
SN12C = experiment: Growth inhibition of human SN12C cells incubated for 48 hrs by sulforhodamine B assay; assay type: functional
[1] = target: RAF proto-oncogene serine/threonine-protein kinase (Homo sapiens, UniProt P04049); experiment: Inhibition of human c-RAF at 10 uM using MEK1 as substrate in presence of [33P]ATP by Hotspot assay relative to control
Chain of RAF proto-oncogene serine/threonine-protein kinase (P04049 whole entry): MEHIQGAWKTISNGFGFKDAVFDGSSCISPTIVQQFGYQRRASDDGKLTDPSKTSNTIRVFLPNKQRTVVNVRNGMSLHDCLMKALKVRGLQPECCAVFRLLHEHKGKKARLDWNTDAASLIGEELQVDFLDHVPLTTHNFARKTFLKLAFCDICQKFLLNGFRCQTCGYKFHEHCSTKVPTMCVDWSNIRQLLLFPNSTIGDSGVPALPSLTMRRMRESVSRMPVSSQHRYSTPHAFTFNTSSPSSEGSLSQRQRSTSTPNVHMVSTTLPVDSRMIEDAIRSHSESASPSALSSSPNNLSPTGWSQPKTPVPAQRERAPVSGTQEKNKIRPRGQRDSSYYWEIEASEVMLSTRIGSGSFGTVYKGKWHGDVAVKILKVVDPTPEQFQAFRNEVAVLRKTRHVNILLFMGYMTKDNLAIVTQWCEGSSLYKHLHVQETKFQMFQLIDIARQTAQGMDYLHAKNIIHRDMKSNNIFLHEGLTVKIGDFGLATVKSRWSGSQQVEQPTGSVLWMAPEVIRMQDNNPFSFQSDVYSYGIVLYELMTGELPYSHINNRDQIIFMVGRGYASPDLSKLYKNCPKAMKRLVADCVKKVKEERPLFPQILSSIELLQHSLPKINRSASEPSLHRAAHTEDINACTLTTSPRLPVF

U-251 = experiment: Growth inhibition of human U251 cells incubated for 48 hrs by sulforhodamine B assay; assay type: functional; conditions: U-251, 48 h
EKVX = experiment: Growth inhibition of human EKVX cells incubated for 48 hrs by sulforhodamine B assay; assay type: functional
SF-539 = experiment: Growth inhibition of human SF539 cells incubated for 48 hrs by sulforhodamine B assay; assay type: functional; conditions: SF-539, 48 h
PC-3 = experiment: Growth inhibition of human PC3 cells incubated for 48 hrs by sulforhodamine B assay; assay type: functional; conditions: PC-3, 48 h
SNB-75 = experiment: Growth inhibition of human SNB75 cells incubated for 48 hrs by sulforhodamine B assay; assay type: functional; conditions: SNB-75, 48 h
RXF 393 = experiment: Growth inhibition of human RXF393 cells incubated for 48 hrs by sulforhodamine B assay; assay type: functional; conditions: RXF 393, 48 h
SW-620 = experiment: Growth inhibition of human SW620 cells incubated for 48 hrs by sulforhodamine B assay; assay type: functional; conditions: SW-620, 48 h
HCT-15 = experiment: Growth inhibition of human HCT15 cells incubated for 48 hrs by sulforhodamine B assay; assay type: functional; conditions: HCT-15, 48 h
MCF7 = experiment: Growth inhibition of human MCF7 cells incubated for 48 hrs by sulforhodamine B assay; assay type: functional; conditions: MCF7, 48 h
A549 = experiment: Growth inhibition of human A549/ATCC cells incubated for 48 hrs by sulforhodamine B assay; assay type: functional; conditions: A549, 48 h
IGROV-1 = experiment: Growth inhibition of human IGROV1 cells incubated for 48 hrs by sulforhodamine B assay; assay type: functional; conditions: IGROV-1, 48 h
BT-549 = experiment: Growth inhibition of human BT549 cells incubated for 48 hrs by sulforhodamine B assay; assay type: functional; conditions: BT-549, 48 h
M14 = experiment: Growth inhibition of human M14 cells incubated for 48 hrs by sulforhodamine B assay; assay type: functional; conditions: M14, 48 h
KM12 = experiment: Growth inhibition of human KM12 cells incubated for 48 hrs by sulforhodamine B assay; assay type: functional; conditions: KM12, 48 h
CAKI-1 = experiment: Growth inhibition of human Caki1 cells incubated for 48 hrs by sulforhodamine B assay; assay type: functional; conditions: CAKI-1, 48 h
SF-268 = experiment: Growth inhibition of human SF268 cells incubated for 48 hrs by sulforhodamine B assay; assay type: functional; conditions: SF-268, 48 h
SNB-19 = experiment: Growth inhibition of human SNB19 cells incubated for 48 hrs by sulforhodamine B assay; assay type: functional; conditions: SNB-19, 48 h
LOX IMVI = experiment: Growth inhibition of human LOXIMVI cells incubated for 48 hrs by sulforhodamine B assay; assay type: functional
HL-60(TB) = experiment: Growth inhibition of human HL-60(TB) cells incubated for 48 hrs by sulforhodamine B assay; assay type: functional; conditions: HL-60, 48 h
HT-29 = experiment: Growth inhibition of human HT-29 cells incubated for 48 hrs by sulforhodamine B assay; assay type: functional; conditions: HT-29, 48 h
MDA-MB-435 = experiment: Growth inhibition of human MDA-MB-435 cells incubated for 48 hrs by sulforhodamine B assay; assay type: functional; conditions: MDA-MB-435, 48 h
[2] = read-out: LC50 (the source's name)

`COc1cc2cc(Oc3ccc(NC(=O)Nc4cccc(C(F)(F)F)c4)cc3)c(C)nc2cc1OC` gave a GI50 (OVCAR-3) of 2.04 µM, a TGI (OVCAR-3) of 8.07 µM and a CC50 (OVCAR-3; [2]) of 39.9 µM. The GI50 (K562) was 1.73 µM, the LC50 (concentration killing 50% of cells) (K562) was over 50 µM and the TGI (K562) was 14 µM. It also gave a GI50 (786-0) of 1.74 µM, a TGI (786-0) of 9.24 µM and a CC50 (786-0; [2]) of over 50 µM. It also gave a GI50 (Malme-3M) of 1.71 µM, a TGI (Malme-3M) of 4.9 µM and a CC50 (Malme-3M; [2]) of 33.8 µM. The GI50 (SK-MEL-5) was 1.08 µM, the TGI (SK-MEL-5) was 2.66 µM and the CC50 (SK-MEL-5; [2]) was 8.47 µM. For the same compound, the GI50 (SK-OV-3) was 2.06 µM, the TGI (SK-OV-3) was 10.6 µM and the CC50 (SK-OV-3; [2]) was over 50 µM. For the same compound, the GI50 (RPMI-8226) was 1.05 µM, the LC50 (lethal concentration, 50% cell kill) (RPMI-8226) was over 50 µM and the TGI (RPMI-8226) was 2.96 µM. It also gave a GI50 (NCI-H460) of 1.6 µM, a TGI (NCI-H460) of 6.02 µM and a CC50 (NCI-H460; [2]) of 34.9 µM. For the same compound, the GI50 (SN12C) was 2.06 µM, the TGI (SN12C) was 16.3 µM and the CC50 (SN12C; [2]) was over 50 µM. The inhibition [1] was 99.2%, the GI50 (U-251) was 1.56 µM and the TGI (U-251) was 5.61 µM. For the same compound, the CC50 (U-251; [2]) was 17 µM, the GI50 (EKVX) was 1.48 µM and the LC50 (concentration killing 50% of cells) (EKVX) was over 50 µM. The TGI (EKVX) was 6.46 µM, the GI50 (SF-539) was 2.48 µM and the TGI (SF-539) was 8.74 µM. The CC50 (SF-539; [2]) was 25.4 µM, the GI50 (PC-3) was 1.39 µM and the TGI (PC-3) was 5.49 µM. It also gave a CC50 (PC-3; [2]) of 30.4 µM, a GI50 (SNB-75) of 1.17 µM and a TGI (SNB-75) of 6.18 µM. The CC50 (SNB-75; [2]) was over 50 µM, the GI50 (RXF 393) was 1.63 µM and the TGI (RXF 393) was 4.97 µM. It also gave a CC50 (RXF 393; [2]) of 26.3 µM, a GI50 (SW-620) of 2.28 µM and an LC50 (SW-620) of over 50 µM. For the same compound, the TGI (SW-620) was 11.1 µM, the GI50 (HCT-15) was 1.85 µM and the LC50 (lethal concentration, 50% net cell kill) (HCT-15) was over 50 µM. For the same compound, the TGI (HCT-15) was 22.2 µM, the GI50 (MCF7) was 1.34 µM and the TGI (MCF7) was 5.43 µM. It also gave a CC50 (MCF7; [2]) of 18.9 µM, a GI50 (A549) of 1.47 µM and a TGI (A549) of 6.49 µM. For the same compound, the CC50 (A549; [2]) was 26.6 µM, the GI50 (IGROV-1) was 2.95 µM and the TGI (IGROV-1) was 24.9 µM. It also gave a CC50 (IGROV-1; [2]) of over 50 µM, a GI50 (BT-549) of 1.43 µM and a TGI (BT-549) of 6.18 µM. It also gave a CC50 (BT-549; [2]) of 28.2 µM, a GI50 (M14) of 1.67 µM and a TGI (M14) of 7.67 µM. It also gave a CC50 (M14; [2]) of 35.6 µM, a GI50 (KM12) of 1.42 µM and a TGI (KM12) of 5.92 µM. For the same compound, the CC50 (KM12; [2]) was 36.1 µM, the GI50 (CAKI-1) was 1.32 µM and the TGI (CAKI-1) was 4.29 µM. It also gave a CC50 (CAKI-1; [2]) of 48.6 µM, a GI50 (SF-268) of 2.57 µM and an LC50 (50% lethal concentration) (SF-268) of over 50 µM. The TGI (SF-268) was 15.5 µM, the GI50 (SNB-19) was 2.19 µM and the TGI (SNB-19) was 15 µM. For the same compound, the CC50 (SNB-19; [2]) was over 50 µM, the GI50 (LOX IMVI) was 1.84 µM and the TGI (LOX IMVI) was 6.61 µM. It also gave a CC50 (LOX IMVI; [2]) of 18.3 µM, a GI50 (HL-60(TB)) of 1.56 µM and a TGI (HL-60(TB)) of 3.91 µM. For the same compound, the CC50 (HL-60(TB); [2]) was over 50 µM, the GI50 (HT-29) was 2.05 µM and the TGI (HT-29) was 6.26 µM. The CC50 (HT-29; [2]) was 17.8 µM, the GI50 (MDA-MB-435) was 1.63 µM and the TGI (MDA-MB-435) was 10.1 µM. For the same compound, the CC50 (MDA-MB-435; [2]) was over 50 µM.
